Results from patent US7981915B2, “Methods for modulating PPAR biological activity for the treatment of diseases caused by mutations in the CFTR gene” (Beth Israel Deaconess Medical Center, priority 2003, dated 2011).
Blank lines part the entries; values can stand above or below the compound they belong to.

Legend:
TNFα = test: LPS-induced TNFα secretion from peritoneal macrophages incubated in vitro with PPAR agonists; assay type: cell-based, mice; conditions: in vitro 12 hours, DHA 5 μM, Wy14643 50 μM, rosiglitazone 10 μM
Method: (§1) Cftr^−/− exon 10 knockout mice and wild-type (WT) littermates were maintained on peptamen (as described above). Peritoneal macrophages were induced by intraperitoneal injection of 2 ml thioglycollate broth followed by harvesting of the macrophages 4 days after injection. For studies determining the effect of in vivo pretreatment of DHA, cftr^−/− mice were given 40 mg DHA/day for 10 days. For in vitro experiments, harvested macrophages were plated in RPMI medium with 10% serum and incubated for 12 hours with media alone or with DHA (5 μM), EPA (5 μM) the PPAR agonist Wy14643 (50 μM) or the PPAR agonist rosiglitazone (10 μM). The cells were washed and then stimulated with 0-10000 ng/ml LPS for 4.5 hours. TNFα and IL-6 secretion were measured by ELISA. Fatty acids were analyzed by GC/MS.

IL-6 [1] = test: LPS-induced IL-6 secretion from peritoneal macrophages incubated in vitro with PPAR agonists; assay type: cell-based, mice; conditions: CF macrophages; in vitro 12 hours; Wy14643 50 μM, rosiglitazone 10 μM; 100 ng/ml LPS
PPARα mRNA [2] = test: Liver PPARα mRNA by quantitative RT-PCR (DSS colitis / DHA); assay type: in vivo, mice
Method: On day 40, WT and cftr^−/− mice were fed Peptamen alone or Peptamen plus 125 mg DSS/day (MP Biomedicals, Aurora, Ohio) for 5 days followed by 9 days of 85 mg DSS/day as previously described for the genesis of bile duct injury (Blanco, P. G. et al., supra). The amount of DSS in Peptamen was equally measured for WT and cftr^−/− mice. The volume of Peptamen administered (20 ml) was measured on a daily basis. There was no difference in Peptamen intake between WT and cftr^−/− mice. The mean weight of WT mice at the start of DSS treatment was 20.5 g (range 14.5-26 g), and the mean weight of cftr^−/− mice was 18.9 g (range 15.5-23.5 g). These values were not statistically different between WT and cftr^−/− mice. […] There was no difference in weight lost during DSS treatment comparing WT and cftr^−/− mice. Additional mice from these groups were given DHA (Pure Encapsulations, Sudbury, Mass.) prepared as a stable emulsion in Peptamen, at a dose of 40 mg per day for 5 days before and continued for 14 days during administration of the DSS. Bile duct injury was quantified, as previously described, by examining histological features of epithelial injury, bile duct proliferation, and bile duct angulation (Blanco et al., supra). To determine whether a complete absence of PPARα was responsible for the bile duct injury, 5 PPARα^−/− mice were treated with 5% DSS in drinking water for 7 days to induce colitis (Okayasu et al., Gastroenterology, 98:694-702, 1990). PPARγ^−/− mice are not viable and thus were not tested.
After each specific treatment, the mice were euthanized with carbon dioxide. Tissues were snap frozen in RNAlater (Ambion, Austin, Tex.) for RNA extraction (Barrett et al., Nat Genet, 23:32-33, 1999). PPAR mRNA analyses were performed by quantitative RT-PCR. Total RNA from cftr^−/− and WT tissues was prepared using the RNA STAT-60 isolation reagent (Tel-Test, Friendswood, Tex.) and quantified spectrophotometrically. Quantitative PCR was performed in an ABI Prism 7700 Sequence Detector (Applied Biosystems, Foster City, Calif.) using a RT-PCR master mix kit (Applied Biosystems) according to the manufacturer's instructions. PCR primers and PPAR FAM-labeled TaqMan probes were from Integrated DNA Technologies (Coralville, Iowa). The oligonucleotide sequences used for PPARγ were the following: PPARγ exon 2 FW 5′-TCACAAGAGCTGACCCAATGGT-3′ (SEQ ID NO: 1), PPARγ exon 2 RV 5′-ATAATAAGGTGGAGATGCAGGTTCTAC-3′ (SEQ ID NO: 2), PPARγ probe 5′-FAM-CTGAAGCTCCAAGAATACCAAAGTGCGATC-TAMRA-3′ (SEQ ID NO: 3). The sequences used for PPARα were the following: PPARα FW 5′-TATTCGGCTGAAGCTGGTGTAC-3′ (SEQ ID NO: 9), PPARα RV 5′-CTGGCATTTGTTCCGGTTCT-3′ (SEQ ID NO: 10), PPARα probe 5′-CTGAATCTTGCAGCTCCGATCACACTTG-3′ (SEQ ID NO: 11). Levels of mRNA were normalized to 18s ribosomal RNA (ribosomal RNA control reagents, Applied Biosystems) quantified simultaneously to PPAR in a multiplex RT-PCR reaction. Thermocycler conditions used were—Stage 1: 48° C./30 minutes; Stage 2: 95° C./10 minutes; Stage 3: 40 cycles of 95° C./15 seconds and 60° C./60 seconds. All samples were analyzed in duplicate.

IL-6 [3] = test: LPS-induced IL-6 secretion from peritoneal macrophages after in vivo DHA pretreatment; parameters: species or system mice; conditions: CF peritoneal macrophages; oral DHA pretreatment 40 mg/day for 10 days
Method: as §1

PPARα mRNA [4] = conditions: rat liver; cited from earlier work
PPARγ mRNA = test: Liver PPARγ mRNA by quantitative RT-PCR (DSS colitis / DHA); assay type: in vivo; conditions: WT and cftr−/− mice; DSS in the absence or presence of DHA; to undetectable levels
Method: (§2) On day 40, WT and cftr^−/− mice were fed Peptamen alone or Peptamen plus 125 mg DSS/day (MP Biomedicals, Aurora, Ohio) for 5 days followed by 9 days of 85 mg DSS/day as previously described for the genesis of bile duct injury (Blanco, P. G. et al., supra). The amount of DSS in Peptamen was equally measured for WT and cftr^−/− mice. The volume of Peptamen administered (20 ml) was measured on a daily basis. There was no difference in Peptamen intake between WT and cftr^−/− mice. The mean weight of WT mice at the start of DSS treatment was 20.5 g (range 14.5-26 g), and the mean weight of cftr^−/− mice was 18.9 g (range 15.5-23.5 g). […] Bile duct injury was quantified, as previously described, by examining histological features of epithelial injury, bile duct proliferation, and bile duct angulation (Blanco et al., supra). […]
After each specific treatment, the mice were euthanized with carbon dioxide. […] PPAR mRNA analyses were performed by quantitative RT-PCR. Total RNA from cftr^−/− and WT tissues was prepared using the RNA STAT-60 isolation reagent (Tel-Test, Friendswood, Tex.) and quantified spectrophotometrically. Quantitative PCR was performed in an ABI Prism 7700 Sequence Detector (Applied Biosystems, Foster City, Calif.) using a RT-PCR master mix kit (Applied Biosystems) according to the manufacturer's instructions. […] All samples were analyzed in duplicate.

PPARα = target: T1, PPARα (Mus musculus, UniProt P23204); test: Western blot of PPARα in nuclear and cytosolic liver extracts; assay type: in vivo; conditions: 3 mice per group
T1 construct: from tissue; host or cells: mouse liver homogenate (WT and cftr-/- C57/BL6)
T1 sequence (P23204 1-468): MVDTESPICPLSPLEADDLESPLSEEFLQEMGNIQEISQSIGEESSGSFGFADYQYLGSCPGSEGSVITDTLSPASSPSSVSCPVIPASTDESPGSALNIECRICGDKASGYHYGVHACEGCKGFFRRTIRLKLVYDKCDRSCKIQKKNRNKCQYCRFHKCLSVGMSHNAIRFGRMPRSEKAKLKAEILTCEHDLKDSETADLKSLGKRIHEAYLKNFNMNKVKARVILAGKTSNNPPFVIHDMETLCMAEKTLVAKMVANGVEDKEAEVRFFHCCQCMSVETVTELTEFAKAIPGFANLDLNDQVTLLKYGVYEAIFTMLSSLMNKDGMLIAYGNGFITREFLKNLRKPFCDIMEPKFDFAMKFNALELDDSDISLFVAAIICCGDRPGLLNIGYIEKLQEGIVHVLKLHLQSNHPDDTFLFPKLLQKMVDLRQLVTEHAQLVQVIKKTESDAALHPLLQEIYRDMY
Method: as §2, with “g). These values were not statistically different between WT and cftr^−/− mice. […] There was no difference in weight lost during DSS treatment comparing WT and cftr^−/− mice.” for “g).”
For western blotting, nuclear and cytoplasmic extracts were prepared as described previously (Ollero et al., supra). […] Protein concentration was measured in all samples by the Bradford protein assay (Bio-Rad, Hercules, Calif.). […]

[5] = WT mice, single treatment, compared to untreated
[6] = cftr−/− mice, single treatment, compared to untreated

Compound: CN(CCOc1ccc(CC2SC(=O)NC2=O)cc1)c1ccccn1 (stereo not shown) [rosiglitazone]
decrease in LPS induced TNFα secretion (TNFα; WT macrophages): 18% | decrease in LPS induced IL-6 secretion (IL-6 [1]): no effect

Compound: CC/C=C\C/C=C\C/C=C\C/C=C\C/C=C\C/C=C\CCC(=O)O [DHA, Docosahexaenoic Acid]
increase in liver PPARα mRNA (PPARα mRNA [2]; WT mice, combination of DSS and DHA, compared to no DSS and no DHA): 10.4 fold | increase in liver PPARα mRNA (PPARα mRNA [2]; [5]): 12.1 fold | increase in liver PPARα mRNA (PPARα mRNA [2]; cftr−/− mice, combination of DSS and DHA, compared to DSS only, not statistically significant): 2.7 fold | increase in liver PPARα mRNA (PPARα mRNA [2]; cftr−/− mice, combination of DSS and DHA, compared to no DSS and no DHA): 4.3 fold | increase in liver PPARα mRNA (PPARα mRNA [2]; [6]): 7.0 fold | LPS-induced IL-6 secretion (IL-6 [3]): no effect

Compound: Cc1cccc(Nc2cc(Cl)nc(SCC(=O)O)n2)c1C [Wy14643]
decrease in LPS induced TNFα secretion (TNFα; WT macrophages): did not alter secretion | PPARα mRNA levels (PPARα mRNA [4]): increase PPARα mRNA levels

PPARα nuclear/cytoplasmic ratio, liver (densitometry) (PPARα; WT mice): 1.06±0.05 | PPARα nuclear/cytoplasmic ratio, liver (densitometry) (PPARα; cftr−/− mice): 0.61±0.02
Compound: dextran sodium sulfate [DSS]
increase in liver PPARα mRNA (PPARα mRNA [2]; [5]): 9.3 fold | increase in liver PPARα mRNA (PPARα mRNA [2]; [6]): no significant change | liver PPARγ mRNA levels (PPARγ mRNA): markedly suppressed

Compound: CC/C=C\C/C=C\C/C=C\C/C=C\C/C=C\CCCC(=O)O [EPA, eicosapentaenoic acid]
decrease in LPS induced TNFα secretion (TNFα; CF macrophages, EPA 5 μM, 100 ng/ml LPS): no effect
